From patent publication US6455551B1, “Use of 1-hydroxy-2-pyridones for treating mucosa diseases which are difficult to treat” (Aventis Pharma Deutschland GmbH, priority 1996, dated 2002)
≈ marks a conversion by molar mass, not a printed value. Where two headings read alike, the source gives them in different places.

Legend:
Assay type in all cases: cell-based
Candida glabrata = assay: Microtiter dilution MIC test in RPMI 1640 medium, Candida glabrata strains; conditions: Nakaseomyces glabratus, 48 h, read-out: Minimum inhibitory concentration (MIC)
Protocol: (§1) The activity of Compound 1 and fluconazole is determined by the microtiter dilution technique in RPMI 1640 medium. The growth medium RPMI 1640 buffered with 0.165 M morpholinopropanesulfonic acid pH 7.0 is introduced into 96-well microtiter plates. Serial dilutions by a factor of 2 are prepared for Compound 1 and fluconazole to result in final concentrations of 256 to 0.002 μg/ml of Compound 1 and fluconazole. The microtiter plates prepared in this way are incubated with the Candida strains to be tested. For comparison purposes, the two Candida albicans strains ATCC 90028 and 90029 which are not resistant to fluconazole are included in the test. The initial cell count is 1-5 ×10^3 colony-forming units per ml of growth medium. The microtiter plates are incubated at 35° C. for 48 hours. The minimum inhibitory concentration is determined by photometry at 510 nm.

Candida guillermondii = assay: Microtiter dilution MIC test in RPMI 1640 medium, Candida guillermondii strain; conditions: Candida guillermondii B47; 35° C., 48 hours; read-out: Minimum inhibitory concentration (MIC)
Protocol: (§2) Fluconazole-resistant strains of Candida albicans are isolated from patients who have been treated, for example, with fluconazole for more than one year. For this purpose, samples are taken from the patients' mouths and applied, undiluted or diluted 1:100, to an RPMI 1640 agar (Gibco/BRL, Life Technologies GmbH, D-76339 Eggenstein) which contains about 1.0 μg/ml fluconazole. Resistant Candida albicans strains are isolated, further purified on agar and stored isolated in peptone/dextrose slant agar tubes.
as §1

Candida krusei = assay: Microtiter dilution MIC test in RPMI 1640 medium, Candida krusei strains; conditions: Pichia kudriavzevii, 48 h, read-out: Minimum inhibitory concentration (MIC)
Protocol: as §2, §1

Candida albicans = assay: Microtiter dilution MIC test in RPMI 1640 medium, Candida albicans strains; conditions: read-out: Minimum inhibitory concentration (MIC)
Protocol: as §2, §1

Trichomonas vaginalis = assay: In vitro activity on protozoa, Trichomonas vaginalis
Source text: (§3) In vitro activity of the Compound 1 on protozoa

Entamoeba histolytica = assay: In vitro activity on protozoa, Entamoeba histolytica
Source text: as §3

[1] = 48 h, Candida albicans 94/3, 35° C.
[2] = 48 h, Candida albicans 94/14, 35° C.
[3] = 48 h, Candida albicans 94/57, 35° C.
[4] = 48 h, Candida albicans 94/62, 35° C.
[5] = 48 h, Candida albicans 94/90, 35° C.
[6] = 48 h, Candida albicans 94/118, 35° C.
[7] = 48 h, Candida albicans 94/134, 35° C.
[8] = 48 h, Candida albicans 94/138, 35° C.
[9] = 48 h, Candida albicans 94/222, 35° C.
[10] = 48 h, Candida albicans 94/231, 35° C.
[11] = 48 h, Candida albicans B6, 35° C.
[12] = 48 h, Candida albicans B70, 35° C.
[13] = 48 h, Candida albicans B75, 35° C.
[14] = ATCC90028, 48 h, Candida albicans ATCC 90028 (not resistant to fluconazole), 35° C.
[15] = ATCC90029, 48 h, Candida albicans ATCC 90029 (not resistant to fluconazole), 35° C.

Row | Compound | MIC (Candida glabrata; Candida glabrata B12, 35° C.) [µg/mL] | MIC (Candida glabrata; Candida glabrata B14, 35° C.) [µg/mL] | MIC (Candida glabrata; Candida glabrata B18, 35° C.) [µg/mL] | MIC (Candida glabrata; Candida glabrata B21, 35° C.) [µg/mL] | MIC (Candida glabrata; Candida glabrata B35, 35° C.) [µg/mL] | MIC (Candida glabrata; Candida glabrata B37, 35° C.) [µg/mL] | MIC (Candida glabrata; Candida glabrata B38, 35° C.) [µg/mL] | MIC (Candida glabrata; Candida glabrata B39, 35° C.) [µg/mL] | MIC (Candida glabrata; Candida glabrata B40, 35° C.) [µg/mL] | MIC (Candida glabrata; Candida glabrata B50, 35° C.) [µg/mL] | MIC (Candida glabrata; Candida glabrata B51, 35° C.) [µg/mL] | MIC (Candida guillermondii) [µg/mL] | MIC (Candida krusei; Candida krusei B1, 35° C.) [µg/mL] | MIC (Candida krusei; Candida krusei B4, 35° C.) [µg/mL] | MIC (Candida albicans; [1]) [µg/mL] | MIC (Candida albicans; [2]) [µg/mL] | MIC (Candida albicans; [3]) [µg/mL] | MIC (Candida albicans; [4]) [µg/mL] | MIC (Candida albicans; [5]) [µg/mL] | MIC (Candida albicans; [6]) [µg/mL] | other results
1 | OC(Cn1cncn1)(Cn1cncn1)c1ccc(F)cc1F [Fluconazole, fluconazole, reference compound] | 4 (≈ 13.1 µM) | 2 (≈ 6.53 µM) | 8 (≈ 26.1 µM) | 8 (≈ 26.1 µM) | 8 (≈ 26.1 µM) | 16 (≈ 52.2 µM) | 16 (≈ 52.2 µM) | 8 (≈ 26.1 µM) | 16 (≈ 52.2 µM) | 16 (≈ 52.2 µM) | 32 (≈ 104 µM) | 4 (≈ 13.1 µM) | 32 (≈ 104 µM) | 16 (≈ 52.2 µM) | 32 (≈ 104 µM) | 32 (≈ 104 µM) | > 256 | > 256 | > 256 | > 256 | MIC (Candida albicans; [7]): > 256 µg/mL; MIC (Candida albicans; [8]): > 256 µg/mL; MIC (Candida albicans; [9]): > 256 µg/mL; MIC (Candida albicans; [10]): > 256 µg/mL; MIC (Candida albicans; [11]): 1 µg/mL (≈ 3.27 µM); MIC (Candida albicans; [12]): > 256 µg/mL; MIC (Candida albicans; [13]): 2 µg/mL (≈ 6.53 µM); MIC (Candida albicans; [14]): 0.5 µg/mL (≈ 1.63 µM); MIC (Candida albicans; [15]): 1 µg/mL (≈ 3.27 µM)
2 | Cc1cc(COc2ccc(Oc3ccc(Cl)cc3)cc2)n(O)c(=O)c1 [Compound 1, 6-[4-(4-chlorophenoxy)phenoxymethyl]-1-hydroxy4-methyl-2(1H)-pyridone] | 0.5 (≈ 1.4 µM) | 0.5 (≈ 1.4 µM) | 0.5 (≈ 1.4 µM) | 1 (≈ 2.79 µM) | 1 (≈ 2.79 µM) | 1 (≈ 2.79 µM) | 1 (≈ 2.79 µM) | 0.5 (≈ 1.4 µM) | 1 (≈ 2.79 µM) | 0.5 (≈ 1.4 µM) | 0.5 (≈ 1.4 µM) | 1 (≈ 2.79 µM) | 0.5 (≈ 1.4 µM) | 1 (≈ 2.79 µM) | 2 (≈ 5.59 µM) | 2 (≈ 5.59 µM) | 1 (≈ 2.79 µM) | 1 (≈ 2.79 µM) | 1 (≈ 2.79 µM) | 2 (≈ 5.59 µM) | MIC (Candida albicans; [7]): 1 µg/mL (≈ 2.79 µM); MIC (Candida albicans; [8]): 1 µg/mL (≈ 2.79 µM); MIC (Candida albicans; [9]): 1 µg/mL (≈ 2.79 µM); MIC (Candida albicans; [10]): 1 µg/mL (≈ 2.79 µM); MIC (Candida albicans; [11]): 1 µg/mL (≈ 2.79 µM); MIC (Candida albicans; [12]): 1 µg/mL (≈ 2.79 µM); MIC (Candida albicans; [13]): 1 µg/mL (≈ 2.79 µM); MIC (Candida albicans; [14]): 1 µg/mL (≈ 2.79 µM); MIC (Candida albicans; [15]): 0.5 µg/mL (≈ 1.4 µM); MIC (Trichomonas vaginalis; 2 of n = 5 strains investigated): 125 µg/mL (≈ 349 µM); MIC (Trichomonas vaginalis; 3 of n = 5 strains investigated): 31.2 µg/mL (≈ 87.2 µM); MIC (Entamoeba histolytica; 3 of n = 4 strains investigated): 62.5 µg/mL (≈ 175 µM); MIC (Entamoeba histolytica; remaining strain of n = 4 strains investigated (count not given)): 31.2 µg/mL (≈ 87.2 µM)
